pIC50: −log10 of the molar value.
How the values were obtained:
Assay type in all cases: cell-based, human
[1] = tested on: peripheral blood mononuclear cells (PBMC) with allogeneic PBMC or RPMI1788 stimulator cells; experiment: Mixed lymphocyte reaction (MLR) test, [3H]-thymidine incorporation; details: Table 1; 5 days incubation + 16 h thymidine
Excerpt: (§1) Various models may be used for testing an immunosuppressive effect. In vivo, for example, different transplantation models are available. They are strongly influenced by different immunogenicities, depending on the donor and recipient species used and depending on the nature of the transplanted organ. The survival time of transplanted organs can thus be used to measure the suppression of the immune response. In vitro, the most used models are lymphocyte activation tests. Usually activation is measured via lymphocyte proliferation. Inhibition of proliferation thus always means immunosuppression under the experimental conditions applied. There exist different stimuli for lymphocyte activation: • a) co-culture of lymphocytes of […] (mixed lymphocyte reaction, hereinafter referred as MLR) in a so-called mixed lymphocyte culture test: lymphocytes expressing different minor and major antigens of the HLA-DR type (=alloantigens) activate each other non-specifically. • b) a CD3 assay here there is an activation of the T-lymphocytes via an exogenously added antibody (OKT3).
(§2) All reagents were dissolved in 0.5 ml dimethylsulfoxide (hereinafter referred as DMSO) and further diluted in culture medium before use for the following in vitro experiments. The commercially available culture medium consisted of RPMI-1640+10% foetal calf serum (FCS).
Peripheral blood mononuclear cells (hereinafter referred as PBMC) were isolated from heparinized peripheral blood by density gradient centrifugation over Lymphoprep (Nycomed, Maorstua, Norway). Allogeneic PBMC or Eppstein-Barr Virus-transformed human B cells [commercially available under the trade name RPM11788 (ATCC name CCL156)] which strongly express B7-1 and B7-2 antigens were used as stimulator cells after irradiation with 30 Gy. MLR was performed in triplicate wells. After 5 days incubation at 37° C., 1 μCi [^3 H]-thymidine was added to each cup. After a further 16 hours incubation, cells were harvested and counted in a β-counter. Inhibition of proliferation by a compound (drug) described in some of the previous examples was counted using the formula: [formula] wherein cpm is the thymidine count per minute. Assays for CD3 and CD 28

[2] = tested on: highly purified T cells stimulated by anti-CD28 mAb; experiment: CD28 assay: T-cell proliferation stimulated by anti-CD28 mAb + PMA (BrdU); details: Table 1; anti-CD28 mAb + PMA 0.5 ng/ml, 48 h
Excerpt: as §1, §2
(§3) T cells were purified by removing non-T cells. Briefly, monocytes were removed by cold agglutination. The resulting lymphoid cells were further purified by a cell enrichment immunocolumn [Cellect Human T commercially available from Biotex, Edmonton, Alberta, Canada)] by a process of negative selection.
(§4) Highly purified T cells (10^6/ml) were stimulated by immobilized anti-CD3 or anti-CD28 monoclonal antibodies (hereinafter referred as mAb) in the presence of PMA. Anti-CD3 mAb (available from CLB, Amsterdam, Netherlands) were fixed on the 96-microwell plates by incubating the wells with 50 μl of mAb solution (1/800 dilution in culture medium). For anti-CD28 mAb (available from CLB, Amsterdam, Netherlands) 50 μl (1/650 dilution in culture medium) was added directly to the wells. Further, a 20 μl phorbol myristate acetate (hereinafter referred as PMA (commercially available from Sigma, St. Louis, Mo., USA) solution (final concentration: 0.5 ng/ml) was added. Subsequently, 20 μl of a compound described in some of the previous examples were added by serial dilution in triplicate wells. Finally 100 μl of the T-cell suspension (10^6/ml) was added. After 48-hour incubation at 37° C. in 5% CO2 20 μl of a bromo-deuridine (hereinafter referred as BrdU) 100 μM solution (commercially available as Cell Proliferation Elisa from Boehringer-Mannheim Belgium) was added to each well. After a further overnight incubation, T-cell proliferation was measured using a colorimetric immunoassay for qualification of cell proliferation based on the incorporation of BrdU during DNA synthesis. Optical density (hereinafter referred as OD) was measured by a Behring EL311 plate reader at 450 nm (reference wavelength: 690 nm). Inhibition of proliferation by a compound (drug) described in some of the previous examples was counted using the formula: [formula]

[3] = tested on: highly purified T cells stimulated by immobilized anti-CD3 mAb; experiment: CD3 assay: T-cell proliferation stimulated by anti-CD3 mAb + PMA (BrdU); details: Table 1; anti-CD3 mAb + PMA 0.5 ng/ml, 48 h; read-out: CD 3 IC50
Excerpt: as §1, §2, §3, §4

Row | SMILES | pIC50 [1] | pIC50 [2] | pIC50 [3]
1 | Cn1c(=O)c2nc(O)c(C=O)nc2n(C)c1=O [Example 46, 6-hydroxy-7-formyl-1,3-dimethyl-lumazine] | 4.14 | 4.10 | 3.98
2 | Cn1c(=O)[nH]c2nc(O)c(-c3ccccc3)nc2c1=O [Example 42, 7-hydroxy-3-methyl-6-phenyllumazine] | 4.26 | 4.60 | 4.70
3 | CCOC(=O)c1nc2c(=O)n(C)c(=O)n(C)c2nc1NNc1ccccc1 [Example 64, 6-ethylcarboxylate-7-phenylhydrazino-1,3-dimethyl-lumazine] | 4.70 | 4.92 | 4.25
4 | CC(C)Sc1nc2c(nc1C#N)c(=O)n(C)c(=O)n2C [Example 58, 6-cyano-7-mercaptoisopropyl-1,3-dimethyl-lumazine] | 3.94 | 3.94 | 3.98
5 | Cn1c(=O)c2nc(C=C[N+](=O)[O-])cnc2n(C)c1=O [Example 18, 1,3-dimethyl-6-[(2-nitro)ethenyl]lumazine] | 4.92 | 6.40 | 6.10
6 | CC(C)Nc1nc2c(nc1C=O)c(=O)n(C)c(=O)n2C [Example 66, 6-formyl-7-isopropylamino-1,3-dimethyl-lumazine] | 4.04 | 4.04 | 4.17
7 | Cn1c(=O)c2ncc(/C=C/c3cccnc3)nc2n(C)c1=O [Example 21, 1,3-dimethyl-7-[(E)-2-(pyrid-3-yl)vinyl]lumazine] | 4.70 | 4.22 | 4.00
8 | Cn1c(=O)c2nc(C=Cc3ccc(C(F)(F)F)cc3)cnc2n(C)c1=O [Example 78, 6-[2-(p-trifluoromethylphenyl)ethenyl]-1,3-dimethyllumazine] | 4.77 | 3.79 | < 3.70
9 | Cn1c(=O)c2nc(/C=C/c3ccncc3)cnc2n(C)c1=O [Example 7, 1,3-dimethyl-6-[(E)-2-(pyrid-4-yl)vinyl]lumazine] | 4.70 | 3.82 | 3.82
10 | Cn1c(=O)c2nc(Cl)c(C#N)nc2n(C)c1=O [Example 51, 6-chloro-7-cyano-1,3-dimethyl-lumazine] | 3.94 | 4.25 | 4.25
11 | Cn1c(=O)c2nc(C=O)c(N3CCSCC3)nc2n(C)c1=O [Example 69, 6-formyl-7-thiomorpholino-1,3-dimethyl-lumazine] | 3.94 | 3.94 | 4.10
12 | Cn1c(=O)c2ncc(/C=C/c3ccccc3)nc2n(C)c1=O [Example 26, 1,3-dimethyl-7-(E)-styryllumazine] | 4.30 | 3.94 | 3.94
